In brackets after ≈: the same amount, converted by molar mass. Where two headings read alike, the source gives them in different places.
What was measured:
Assay in all cases: MIC by agar dilution method
Format in all cases: cell-based
[1] = test system: Staphylococcus aureus ATCC 25923
[2] = test system: Staphylococcus epidermis OKI 110001; conditions: OKI110001
[3] = test system: Escherichia coli OKI 35034
[4] = test system: Proteus vulgaris OKI 60002
[5] = test system: Pseudomonas aeruginosa ATCC 27853; conditions: ATCC27853
[6] = test system: Helicobacter pylori 27604
[7] = test system: Helicobacter pylori 27606
[8] = test system: Streptococcus fecalis OKI 80171; conditions: OKI80171, Streptococcus fecalis OKI 80171, agar dilution
[9] = test system: Salmonella typhi OKI 10084; conditions: Salmonella enterica, Salmonella typhi OKI 10084, agar dilution
[10] = ATCC25923, Staphylococcus aureus ATCC 25923, agar dilution, read-out: MIC
[11] = Escherichia coli, OKI35034, Escherichia coli OKI 35034, agar dilution, read-out: MIC
[12] = Proteus vulgaris, OKI60002, Proteus vulgaris OKI 60002, agar dilution, read-out: MIC
[13] = Helicobacter pylori 27604, agar dilution, read-out: MIC
[14] = Helicobacter pylori 27606, agar dilution, read-out: MIC

MIC ([2]; Staphylococcus epidermis OKI 110001, agar dilution, read-out: MIC) [µg/mL]	MIC ([3]; Escherichia coli OKI 35034, agar dilution) [µg/mL]	MIC ([4]; Proteus vulgaris OKI 60002, agar dilution) [µg/mL]	MIC ([5]; Pseudomonas aeruginosa ATCC 27853, agar dilution, read-out: MIC) [µg/mL]	SMILES	MIC [1, 10] [µg/mL]	MIC [3, 11] [µg/mL]	MIC [4, 12] [µg/mL]	MIC [6, 13] [µg/mL]	MIC [7, 14] [µg/mL]	MIC ([1]; ATCC25923) [µg/mL]	MIC ([2]; Staphylococcus) [µg/mL]	MIC [8] [µg/mL]	MIC ([9]; read-out: MIC) [µg/mL]	MIC ([3]; Escherichia coli, OKI35034, Escherichia coli OKI 35034, agar dilution) [µg/mL]	MIC ([4]; Proteus vulgaris, OKI60002) [µg/mL]	MIC ([5]; Pseudomonas aeruginosa) [µg/mL]	MIC ([6]; Helicobacter pylori, 27604) [µg/mL]	MIC ([7]; Helicobacter pylori, 27606) [µg/mL]	MIC ([9]; TYPHI) [µg/mL]
≥ 0.39	50 (≈ 137 µM)	100 (≈ 274 µM)	> 100	CC1(C)S[C@@H]2[C@H](NC(=O)[C@H](N)c3ccc(O)cc3)C(=O)N2[C@H]1C(=O)O [Amoxicillin, amoxicillin]	≥ 0.39	25 (≈ 68.4 µM)	50 (≈ 137 µM)	≥ 0.39	≥ 0.39	–	–	–	–	–	–	–	–	–	–
–	–	–	–	CCOP(=O)(OCC)C(CSCC(=O)OCOC(=O)N1CCN(c2cc3c(cc2F)c(=O)c(C(=O)O)cn3CC)CC1)P(=O)(OCC)OCC [Example 1 B, 7-(4-((2,2-Bis-(diethoxyphosphoryl)-ethylsulfanyl)-acetoxymethoxycarbonyl)-piperazin-1-yl)-1-ethyl-6-fluoro-4-oxo-1,4-dihydroquinoline-3-carboxylic acid]	–	–	–	–	–	6.25 (≈ 8.14 µM)	1.56 (≈ 2.03 µM)	12.5 (≈ 16.3 µM)	≥ 0.78	≥ 0.39	1.56 (≈ 2.03 µM)	12.5 (≈ 16.3 µM)	6.25 (≈ 8.14 µM)	3.12 (≈ 4.06 µM)	–
–	–	–	–	CCn1cc(C(=O)O)c(=O)c2cc(F)c(N3CCNCC3)cc21 [Norfloxacin, norfloxacin]	6.25 (≈ 19.6 µM)	≥ 0.39	0.78 (≈ 2.44 µM)	6.25 (≈ 19.6 µM)	6.25 (≈ 19.6 µM)	–	1.56 (≈ 4.89 µM)	12.5 (≈ 39.1 µM)	–	–	–	12.5 (≈ 39.1 µM)	–	–	≥ 0.39

— patent US6333424A, “Therapeutic derivatives of diphosphonates” (priority 1999, dated 2001)
